Assay results published in a melting point compilation (Tetko et al.; mined from patent text by program, amines drawn as free bases though some values may be those of a salt).

Work on Fc1ccc2[nH]ccc2c1Cl yielded a melting point of 41 to 43 °C. For Cc1ccc(-c2cn(C)c(-c3ccc4c(c3)C(C)(C)c3ccccc3-4)n2)s1, the melting point was 188 to 191 °C. For COc1cc(Nc2ccnc(Nc3cc(OC)c(OC)c(OC)c3)n2)cc(OC)c1, the melting point was 180 °C. With CC(C)C(NC(=O)OCc1ccccn1)C(=O)NC(Cc1ccccc1)C(O)C(O)C(Cc1ccccc1)NC(=O)OC(C)(C)C (centres undefined) the melting point was 202 to 204 °C. With O=C(CCCCCl)c1ccc2c(c1)Cc1cc(C(=O)CCCCCl)ccc1-2 the melting point was 124 to 125 °C. In the case of CCCCCCc1cc2c(cc1CNCC(=O)O)C(=O)CC2, the melting point is reported as 70 °C. Compound Cc1oc(-c2ccccc2)nc1CCOc1ccc(C[C@@H](C(=O)O)N2CCN(S(=O)(=O)c3ccccc3)CC2)cc1 has a melting point of 180 to 182 °C. For O=C1OCc2c1oc1c(F)cccc1c2=O, the melting point was 164 °C. Work on CCOC(=O)c1cnn(C)c1C(=O)Nc1ccc2nc(-c3ccccc3)nn2c1 yielded a melting point of 251 to 254 °C. With COc1cc(C(=O)NCCc2ccc(N)cc2)cc(OC)c1OC(C)=O the melting point was 178 to 180 °C. NS(=O)(=O)c1ccc(-n2nc(C(F)(F)F)cc2-c2ccc(F)cc2)cc1F gave a melting point of 127 to 130 °C. In the case of O=C(O)c1cc(C(F)(F)F)nn1-c1ncccc1Cl, the melting point is reported as 175 to 176 °C. CC1(C)C(=O)Nc2ccc(-c3cccc(Cl)c3)cc21 gave a melting point of 188 to 189 °C. Work on Cc1ccc(S(=O)(=O)OCC2Cc3cc(Cl)cc(-c4ccccc4)c3O2)cc1 (centres undefined) yielded a melting point of 127 to 130 °C. With Cc1c2c(c(Cl)n1C)NC(=O)CN=C2c1ccccc1 the melting point was 195 °C. In the case of C/C(=C\c1ccc2c(c1)OCO2)C(=O)O, the melting point is reported as 205 °C. Compound Cc1cc(O)n2nc(S(=O)(=O)O)nc2n1 has a melting point of over 300 °C. With O=P(O)(O)Cc1ccc(-c2ccc(CP(=O)(O)O)cc2)cc1 the melting point was 114 °C. Compound CCCCc1nc(Cl)c(Cl)[nH]1 has a melting point of 122 to 123 °C. CCCCCCCCCCCCS(=O)(=O)CCOc1ccc(CCC(=O)C(F)(F)F)cc1 gave a melting point of 55 to 56 °C. CCOC(=O)c1c(O)c2cnc(-c3ccccc3)nc2n(CC)c1=O showed a melting point of 177 to 180 °C. Cc1cc(-c2cn[nH]c2N)ccn1 gave a melting point of 230 °C. Compound Cc1cc(C(=O)Nc2ccc(C(=O)O)cc2)no1 has a melting point of 267 to 270 °C. Work on C[C@H](O)CCOc1c(-c2ccc(S(C)(=O)=O)cc2)cnn(-c2ccc(F)c(F)c2)c1=O yielded a melting point of 128 to 130 °C. In the case of CCCC(=O)Nc1c([N+](=O)[O-])c(C(C)(C)C)nn1-c1c(Cl)cc(C(F)(F)F)cc1Cl, the melting point is reported as 152 to 154 °C. Compound CC1(C)C(=O)C(c2ccccc2)=C1c1ccc(S(N)(=O)=O)cc1 has a melting point of 142 to 144 °C. In the case of Cc1cccc(-c2nc3ccccn3c2-c2ccnc(-c3ccc(OCc4cn(C)cn4)cc3)c2)n1, the melting point is reported as 120 °C. Work on CC(N)Cc1ncc(O)c(C(=O)c2ccccc2)c1C(=O)c1ccccc1 (centres undefined) yielded a melting point of 110 to 112 °C. For C=CCOc1cccc(-n2cnc(C(=O)OCC)c2)c1, the melting point was 53 to 55 °C. CC1=NN(C)C(=O)C1C(=O)Nc1cccc2c1CCC2(C)C (centres undefined) showed a melting point of 141 °C. For Cc1cc(O)c2c(c1C)C(=O)CC2, the melting point was 171 to 173 °C. Work on Cc1c(C(=O)Nc2ccc(N3CCN(C4CCOCC4)CC3)c(C#N)c2)cnn1-c1ccc(F)c(F)c1 yielded a melting point of 235 °C. Work on COc1ccc(Cl)c(Oc2c(CCl)nc(N3CCOCC3)nc2NS(=O)(=O)c2ccc(C(C)C)cn2)c1 yielded a melting point of 205 °C. In the case of COc1ccc2cc(-c3ncno3)ccc2n1, the melting point is reported as 150 to 152 °C. With COc1ccc2c(c1)OC=C(C(=O)N1CCN(C(c3ccc(F)cc3)c3ccc(F)cc3)CC1)O2 the melting point was 65 °C. COc1ccc2c(C(=O)NCCCCC(=O)O)cc3cc4c(cc3c2c1)OCO4 showed a melting point of 137 to 138 °C. Nc1cccc2c1CN(c1nc3c(cc1F)c(=O)c(C(=O)O)cn3C1CC1)C2 showed a melting point of over 300 °C. Work on Clc1cccc(CCC2(Cn3ccnc3)SCCS2)c1 yielded a melting point of 224 to 227 °C. Compound O=C(O)CCCC(=O)c1cccc([N+](=O)[O-])c1 has a melting point of 135 to 137 °C. Cc1ccnc(Cl)c1C(=O)O gave a melting point of 152 to 154 °C. For CC(C)CSc1cc(C(=O)O)cc(S(N)(=O)=O)c1Oc1ccccc1, the melting point was 193 to 194 °C. For O=S(=O)(NCCCCCCCCCCOc1ccc(-n2ccnc2)cc1)c1ccc2ccccc2c1, the melting point was 112 to 115 °C. Work on CCCCn1ccc(C(=O)c2cc(C(C)(C)C)c(O)c(C(C)(C)C)c2)c1 yielded a melting point of 101 to 103 °C. For CC#CCC(C)(C)C(=O)/C=C/[C@@H]1[C@H]2CC(=O)O[C@H]2C[C@H]1OC(=O)c1ccccc1, the melting point was 73 to 74 °C. Compound CC(C)c1cccc(C(C)C)c1NC(=O)C1CC(c2ccc(F)cc2)OC1=O (centres undefined) has a melting point of 203 to 205 °C. With O=P(O)(O)C(F)(F)c1ccc(CN(c2ccc(Cl)c(Cl)c2)c2nnc(-c3cccc(Oc4cccc(-c5nnn[nH]5)c4)c3)s2)cc1Br the melting point was 232 to 235 °C. With CCOc1nn(Cc2ccc(OCc3nc(-c4ccccc4)ccc3Cl)cc2)cc1CCC(=O)O the melting point was 120 to 121 °C. In the case of NCc1ccccc1NC1CCN(Cc2ccccc2)CC1, the melting point is reported as 117 to 118 °C. Work on COc1cc(C)cc2nc(S(=O)(=O)Nc3c(Cl)cccc3Cl)nn12 yielded a melting point of 269 to 270 °C. Compound CSc1ccc(C(=O)Cc2ccccc2)cc1F has a melting point of 71 to 72 °C. Work on Oc1cccc2c1CCC(n1cc[nH]c1=S)C2 (centres undefined) yielded a melting point of 263 to 265 °C. With Cc1cc(-c2ccc(C(F)(F)F)cc2)cc(-c2ccnc(-c3ccc(S(N)(=O)=O)s3)c2)n1 the melting point was over 250 °C. Compound COc1ccc(-c2ccc(C(=O)O)cc2)cc1 has a melting point of 250 to 254 °C. For CC(C)COC(=O)C(N)C=CCP(=O)(O)O (centres undefined), the melting point was 163 to 164 °C. COCCOc1ccc(CCC2(O)CN3CCC2CC3)cc1 (centres undefined) showed a melting point of 116 to 117 °C. COC(=O)c1cc(C=NO)cc([N+](=O)[O-])c1 gave a melting point of 144 to 145 °C. CC(=O)Cn1c(CO)nc(C(C)C)c1Sc1cc(Cl)cc(Cl)c1 gave a melting point of 165 to 167 °C. CC(C)Oc1c(C(=O)Nc2nnn[nH]2)sc2c1CS(=O)CC2 (centres undefined) showed a melting point of 225 to 226 °C. CCS(=O)(=O)c1cc2c(cc1OC)CCn1c3c(c(Br)c1-2)CCCCN(C(C)(C)C)C3=O gave a melting point of 227 °C. Compound CCOC(=O)C1=C(C)N=C(SCc2ccccc2)N(C(=O)OCC)C1c1ccccc1C(F)(F)F (centres undefined) has a melting point of 85.5 to 87.5 °C. In the case of NC(=O)c1c(Cl)ccc(Br)c1Cl, the melting point is reported as 117 to 119 °C. With CC(O)(c1cccc(C(F)(F)F)c1)c1cc2cccc(-c3cccc(C(=O)NCCO)c3)c2s1 (centres undefined) the melting point was 176 to 177 °C. With Cc1cc2c(c(O)c1O)C(=O)c1c(O)cccc1C2=O the melting point was 239 to 240 °C. C=CCc1cc(C)cc(C(Nc2ccc(C(=N)N)cc2)C(=O)O)c1OCCO (racemic) gave a melting point of 228 °C. Work on CCCc1n[nH]c2c(=O)[nH]c(-c3ccccc3OCC)nc12 yielded a melting point of 199 to 201 °C. Compound O=C1NCCCN1C1(CO)CCN(Cc2ccccc2)CC1 has a melting point of 210 °C. Compound COc1cc(Nc2nccc(S(=O)(=O)c3ccccc3)n2)cc(OC)c1OC has a melting point of 110 °C. In the case of CC1(Oc2ccccc2)CN(Cc2ccc(COc3cccc4c3CN(C3CCC(=O)NC3=O)C4=O)cc2)C1 (centres undefined), the melting point is reported as 127 to 129 °C. Compound C=CCN(CC=C)CC(=O)N1c2ccccc2N(CCCC)C(=O)c2cnc(-c3ccccc3)nc21 has a melting point of 137 to 138 °C. Compound O=C1OC(Cl)(c2ccc(Cl)cc2Cl)c2ccccc21 (centres undefined) has a melting point of 148 to 149 °C. Work on CCC(=O)NC1(c2ccc(C(C)C)cc2OC(=O)CC)C(=O)c2ccccc2C1=O yielded a melting point of 173 to 175 °C. O=c1oc2ccccc2c(O)c1C1CC(c2ccc(OCc3ccc(-c4ccc(-c5ccccc5)cc4)cc3)cc2)Cc2ccccc21 (centres undefined) gave a melting point of 245 to 248 °C. In the case of CONS(=O)(=O)c1ccc(Cl)c(C(F)(F)F)c1, the melting point is reported as 88 to 90.5 °C. Compound Cc1ccc(CC2CCN(C(=O)C(=O)Nc3ccc4[nH]c(=O)oc4c3)CC2)cc1 has a melting point of 133 to 135 °C. With O=C1NC(=O)C(Nc2cccc(CCOCc3ccc4ccccc4n3)c2)S1 (centres undefined) the melting point was 167 to 168 °C. CCCc1nc2c(N)nc3cc(OCc4ccccc4Cl)ccc3c2n1CC(C)C showed a melting point of 216 to 218 °C. In the case of Cc1cnc(N(C)C)nc1-c1ccncc1, the melting point is reported as 114 to 116 °C. With COc1ccc(Cl)cc1C(NC(C)=N)(c1ccccc1)c1ccccc1 the melting point was 143 to 145 °C. Cc1oc(Cc2cccc(Br)c2)c(C(=O)c2cc(C(C)C)c(OS(=O)(=O)c3ccc(C(=O)O)c(O)c3)c(C(C)C)c2)c1C gave a melting point of 148 °C. CC(C)Cn1c(=O)n(C)c(=O)c2c(OCCCO)c(Cc3cccnc3)sc21 showed a melting point of 111 to 112 °C. Compound O=C(O)C=Cc1ccc(OCC2CN(c3ccccc3)C(=O)O2)cc1 (centres undefined) has a melting point of 239 to 240 °C. Work on COC(=O)CCn1cc(C)c(=O)[nH]c1=O yielded a melting point of 112 to 119 °C. O=c1oc(CO)nn1Cc1ccccc1 showed a melting point of 54 °C. In the case of COc1ccc([N+](=O)[O-])nc1C, the melting point is reported as 96 to 98 °C. Compound CC(C)(C)c1cc(SC(Sc2cc(C(C)(C)C)c(O)c(C(C)(C)C)c2)c2cc(C(C)(C)C)c(O)c(C(C)(C)C)c2)cc(C(C)(C)C)c1O has a melting point of 175 to 177 °C. CC1NC(C#N)=C(C#N)NC1=O (centres undefined) showed a melting point of 243 to 245 °C. For CCOC(=O)c1cnc2c(nc(C)n2C)c1Cl, the melting point was 85 to 90 °C. CCc1c(-c2ccncc2)[nH]c(-c2ccncc2)c1C(C)=O showed a melting point of 241 to 243 °C. In the case of COC1CC(C)(C)C(OC(=O)c2ccccc2)C(OC(=O)c2ccccc2)C=C1C (centres undefined), the melting point is reported as 78 to 80 °C. With CCOC(=O)C(=O)Nc1coc2cc(OC)ccc2c1=O the melting point was 218 to 220 °C. With CN(C)C=Nc1[nH]nc(N2CCOCC2)c1C#N the melting point was 182 to 183 °C. Work on CC(C)n1cc(-c2nc(C#N)c(N)nc2-c2ccccc2F)ccc1=O yielded a melting point of 211 °C. Compound C=CCS(=O)(=O)c1cccnc1S(N)(=O)=O has a melting point of 178 °C. O=C1CN(c2cncc(Cl)n2)CCN1 showed a melting point of 192 to 193 °C. Work on CCC(C)COc1ccc(-c2ccc(O)cc2)cc1Br (centres undefined) yielded a melting point of 75 to 76.5 °C. COc1ccc(C2(C#Cc3cnc(N)nc3)CCC(O)CC2)cc1OC1CCCC1 (centres undefined) showed a melting point of 170 to 172 °C. Work on CCCCCCCCCCCCSC(C)Cn1ccnc1 (centres undefined) yielded a melting point of 79.5 to 81 °C. Cc1nn(CC(O)c2ccc(OC(F)(F)F)cc2)c(=O)n1-c1ccc(N2CCN(c3ccc(O)cc3)CC2)cc1 (centres undefined) showed a melting point of 231 °C. For CC(=O)Nc1cccc(C(=O)NCc2ccc(-n3c(-c4cccnc4N)nc4ccc(C)nc43)cc2)c1, the melting point was 157 to 161 °C.
